What was measured:
[1] = system: established MiaPaCa-2-LVT xenograft tumors; test: Established MiaPaCa-2-LVT xenograft tumors, high dose gemcitabine; assay type: in vivo, mice; conditions: established MiaPaCa-2-LVT tumors, gemcitabine 2×150 mg/kg per week, independent from IMAB362
From the text: 9 days after subcutaneous tumor inoculation, tumor bearing mice reorganised in homogenous treatment groups with 8 animals per group and treatment was initiated.

[2] = Phase I clinical study, single intravenous administration; assay type: in vivo, human
From the text: IMAB362 is in early clinical testing. A phase I clinical study has been conducted in human. […] In an ongoing phase IIa clinical study IMAB362 is given repetitively.

NUGC-4 = test: Apoptosis by cross-linking of IMAB362 (TUNEL assay); assay type: cell-based, human; conditions: within 18-42 hours
Procedure: (§1) The apoptotic assay based on DNA fragmentation was performed as follows. Treated cells (adherent and floating) were fixed in 70% icecold EtOH overnight. After washing, 10^6 fixed cells were incubated with terminal deoxynucleotidyl transferase enzyme (TdT) and FITC-dUTP for 90 min at 37° C. to label DNA breaks. Cells were rinsed, incubated in RNase A/propidium iodide in the dark for 30 min at room temperature to stain total DNA, then analyzed by flowvcytometry. Cell doublets and clumps were eliminated from the analysis by gating.
(§2) The magnitude of apoptosis correlates with the dose of the antibody and level of target expression on the cancer cell. Treatment with gemcitabine leads to cell cycle arrest of tumor cells followed by apoptotic cell death.

KATO-III = test: as above; assay type: cell-based, human; conditions: within 18-42 hours
Procedure: as §1, §2

[3] = system: LVT pancreatic cancer cell lines; test: IMAB362-mediated ADCC assay, LVT pancreatic cancer cell lines and corresponding parental cell lines; assay type: cell-based, human; conditions: for ADCC EC50 / ADCC Max. lysis: at least 2 donors
Procedure: For ADCC assays pancreatic cancer cell lines were transiently transfected with luciferase RNA. This luciferase RNA (pST1-luc2mut-2 hBgUTR-A121-EciI vector (pST1-109)) was produced with an ARCA cap and dissolved in H2O. RNA was stored in 22 μl aliquots at −80° C. For all pancreas cell lines the optimal electroporation conditions were determined resulting in highest transfection rates and viability of the cells. In each assay cells were detached with PBS/5 mM EDTA and 2.5×10^6 cells dissolved in 250 μl X-Vivo were mixed in ice-cold cuvettes with 10 μg RNA. Cells were immediately electroporated (GenePulser Xcell, Biorad) and resuspended in pre-warmed Assay-medium adjusting the cells to 5×10^5 cells/ml. Tested electroporation conditions were for all cell lines: • EP1: 250 V, 475 μF • EP2: 200 V, 300 μF • EP3: 150 V, 300 μF • EP4: 200 V, 400 μF • EP5: 250 V, 950 μF • Control: 0 V, 0 μF
The viability of the cells was determined directly after electroporation using CASY or by staining cells with Trypan blue and determining the percentage of dead cells in the Neubauer chamber. Cells were seeded in quadruplicates in white 96-well plates (2.5×10^4 cells/well) and incubated for 24 h. Subsequently, luciferase activity was measured in a luminometer (Tecan Infinite200) after addition of luciferin mix for 90 min. Transfection was successful and consequently ADCC measurable, if RLU values >1.000 were obtained.
Pancreatic cancer target cells were seeded two days in advance in flasks to obtain 80-90% confluent cultures on the day ADCC started. […] NUGC-4 sub 10cH11 subE10 Luci #2 cells (8000 cells/well) were seeded in addition as positive controls in all assays. Cells were cultivated for 4-6 h before addition of antibody and purified PBMCs. PBMCs were prepared from fresh human buffy coat obtained from healthy donors. About 3× 20-25 ml blood was diluted (1:2) with PBS and carefully layered on 4×15 ml Ficol-Paque Plus (GE Healthcare) in 50 ml Falcon tubes. Gradients were centrifuged (25 min, 700 g). After centrifugation, peripheral blood mononuclear cells (PBMC) were collected from the interphase, washed in PBS/2 mM EDTA, centrifuged (5 min, 468 g), again resuspended in PBS/2 mM EDTA and centrifuged (10 min, 208 g) to remove the platelets. The pellets were resuspended in 50 ml PBS/2 mM EDTA and cells were counted. PBMCs were centrifuged (5 min, 468 g) and resuspended in X-Vivo-15 culture medium at a concentration of 1.6×10^7 cells/ml for addition to the pancreas cells and 1.28×10^7 cells/ml for addition to the NUGC-4 sub 10cH11 subE10 Luci #2 cells.
Of each dilution 25 μl was added in quadruplicates to the target cells. PBS without antibodies was added in the medium and lysis control wells. Subsequently, 25 μl PBMCs were added to each well (E:T ratio=40:1) and plates were incubated for 24 h±1 h at 37° C., 5% CO2.
The next day, 10 μl 8% Triton X100/PBS solution was added to the lysis control wells and 10 μl PBS in all other wells. Finally, 50 μl freshly prepared luciferin stock solution was added (160 mM HEPES, 1×PBS, 3.84 mg/ml D-Luciferin (BD Biosciences)) to each well and plates were incubated for 80 min at RT in the dark. Luminescence resulting from the oxidation of […] by the luciferase of viable cells was measured using a microplate-reader (Infinite200, Tecan, Switzerland). Percentage of cellular cytotoxicity was calculated using the following formula: Specific killing (%)=100−[(RLUsample−RLUtriton)/(RLUmedium ctrl−RLUtriton)×100]
ADCC analyses were also performed with LVT pancreatic cancer cell lines and their corresponding parental cell lines (FIG. 22B-F).

Compound: Nc1ccn([C@@H]2O[C@H](CO)[C@@H](O)C2(F)F)c(=O)n1 [gemcitabine, 4-amino-1-(2-deoxy-2,2-difluoro-β-D-erythro-pentofuranosyl)pyrimidin-2(1H)-one]
- tumor growth [1]: strongly inhibited in tumor growth

Compound: IMAB362: chimeric IgG1 antibody directed against CLDN18.2, developed by Ganymed Pharmaceuticals AG
- measured tumor markers ([2]; one patient, within 4 weeks after treatment): decreased significantly
- tolerability in patients ([2]; single i.v. administration 33-1000 mg/m^2, observed 28 days): very well tolerated
- induction of apoptosis (NUGC-4): induces direct apoptosis
- induction of apoptosis (KATO-III): induces direct apoptosis
- ADCC EC50 ([3]; BxPC3 (ATCC)): n.m.
- ADCC Max. lysis ([3]; BxPC3 (ATCC)): n.m.
- ADCC EC50 ([3]; BxPC3 (ECACC)): n.m.
- ADCC EC50 ([3]; BxPC3 LVT): 0.0477 ± 0.0191 µg/mL
- ADCC Max. lysis ([3]; BxPC3 LVT): 90.6 ± 6.4%
- ADCC EC50 ([3]; CAPAN1-LVT): 0.06503 ± 0.0351 µg/mL
- ADCC Max. lysis ([3]; CAPAN1-LVT): 92.6 ± 5.5%
- ADCC EC50 ([3]; CAPAN1): n.m.
- ADCC Max. lysis ([3]; CAPAN1): n.m.
- ADCC EC50 ([3]; DANG-LVT): 0.0523 ± 0.0277 µg/mL
- ADCC Max. lysis ([3]; DANG-LVT): 85.9 ± 11.7%
- ADCC EC50 ([3]; HPAC-LVT): 0.1168 ± 0.1054 µg/mL
- ADCC Max. lysis ([3]; HPAC-LVT): 76.2 ± 19.4%
- ADCC Max. lysis ([3]; HPAC): 0-22.2%
- target dependence of ADCC ([3]; LVT cell lines versus CLDN18.2 negative parental cell lines): only CLDN18.2 positive target cells are killed
- ADCC killing ([3]; LVT pancreas CA cell lines): killed upon addition of small amounts of antibody at high rates
- ADCC EC50 ([3]; MiaPaCa2-LVT): 0.0234 ± 0.0123 µg/mL
- ADCC Max. lysis ([3]; MiaPaCa2-LVT): 78.1 ± 6.0%
- ADCC EC50 ([3]; MiaPaCa2): n.m.
- ADCC EC50 ([3]; Patu8902-LVT): 0.0492 ± 0.0862 µg/mL
- ADCC Max. lysis ([3]; Patu8902-LVT): 74.1 ± 16.4%
- ADCC EC50 ([3]; Patu8902): n.m.
- ADCC EC50 ([3]; Suit2-LVT): 0.0732 ± 0.0147 µg/mL
- ADCC Max. lysis ([3]; Suit2-LVT): 81.2 ± 7.6%
- ADCC EC50 ([3]; Suit2): n.m.
- ADCC Max. lysis ([3]; Suit2): n.m.
- ADCC EC50 ([3]; YAPC-LVT): 0.0295 ± 0.0157 µg/mL
- ADCC Max. lysis ([3]; YAPC-LVT): 91.5 ± 6.3%
- ADCC EC50 ([3]; YPAC): n.m.
- ADCC Max. lysis ([3]; YPAC): n.m.
